molecular target: ATP-dependent translocase ABCB1 (Homo sapiens, UniProt P08183); test: Inhibition of P-glycoprotein-mediated multidrug resistance in adriamycin-resistant human A2780/ADR cells by calcein AM assay; type: cell-based
Sequence (P08183 whole entry): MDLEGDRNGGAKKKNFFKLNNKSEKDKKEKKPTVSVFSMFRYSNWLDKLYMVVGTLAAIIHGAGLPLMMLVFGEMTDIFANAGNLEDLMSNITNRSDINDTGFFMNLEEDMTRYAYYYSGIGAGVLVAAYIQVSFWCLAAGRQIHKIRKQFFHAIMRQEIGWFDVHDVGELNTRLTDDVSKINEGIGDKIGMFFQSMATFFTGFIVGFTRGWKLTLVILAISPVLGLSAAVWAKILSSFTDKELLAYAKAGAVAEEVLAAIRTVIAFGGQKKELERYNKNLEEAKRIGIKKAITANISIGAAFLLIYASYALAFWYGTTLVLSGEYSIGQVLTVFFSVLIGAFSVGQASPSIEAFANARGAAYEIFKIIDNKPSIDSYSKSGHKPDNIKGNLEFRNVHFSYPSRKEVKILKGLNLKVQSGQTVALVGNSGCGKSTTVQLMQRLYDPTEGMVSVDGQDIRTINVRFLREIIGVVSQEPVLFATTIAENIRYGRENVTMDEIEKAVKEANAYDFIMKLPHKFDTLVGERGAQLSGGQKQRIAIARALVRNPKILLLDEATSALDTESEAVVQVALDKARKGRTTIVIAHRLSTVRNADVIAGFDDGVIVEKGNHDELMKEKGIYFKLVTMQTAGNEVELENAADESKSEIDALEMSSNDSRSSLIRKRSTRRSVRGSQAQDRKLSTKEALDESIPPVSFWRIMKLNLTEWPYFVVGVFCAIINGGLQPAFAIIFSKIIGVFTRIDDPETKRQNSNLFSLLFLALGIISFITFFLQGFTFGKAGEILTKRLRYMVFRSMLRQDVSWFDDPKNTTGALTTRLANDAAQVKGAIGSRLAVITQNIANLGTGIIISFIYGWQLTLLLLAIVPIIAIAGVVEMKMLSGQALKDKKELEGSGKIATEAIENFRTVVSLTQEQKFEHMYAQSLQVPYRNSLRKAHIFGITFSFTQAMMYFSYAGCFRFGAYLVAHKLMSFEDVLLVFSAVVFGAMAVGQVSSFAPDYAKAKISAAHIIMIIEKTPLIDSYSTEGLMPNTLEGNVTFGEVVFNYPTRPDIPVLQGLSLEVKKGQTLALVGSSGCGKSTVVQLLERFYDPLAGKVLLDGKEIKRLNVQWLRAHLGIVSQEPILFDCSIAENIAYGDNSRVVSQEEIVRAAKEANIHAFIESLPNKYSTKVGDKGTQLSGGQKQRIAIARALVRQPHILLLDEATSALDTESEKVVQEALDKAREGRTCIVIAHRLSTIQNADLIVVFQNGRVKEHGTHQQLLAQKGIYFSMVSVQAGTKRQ

Compound	IC50 [nM]
COc1cc2c(cc1OC)CN(CCc1ccc(NC(=O)Nc3cccc([N+](=O)[O-])c3)cc1)CC2	670
COc1cc2c(cc1OC)CN(CCc1ccc(NC(=O)COc3ccccc3N)cc1)CC2	3400
COc1cc2c(cc1OC)CN(CCc1ccc(NC(=O)c3ccc4c(c3)OCO4)cc1)CC2	2100
Nc1ccc(C(=O)Nc2ccc(CCN3CCc4ccccc4C3)cc2)cc1	12000
O=C(Nc1ccc(CCN2CCc3ccccc3C2)cc1)c1ccccc1[N+](=O)[O-]	14000
COc1cc2c(cc1OC)CN(CCc1ccc(NC(=O)Nc3cccc(N)c3)cc1)CC2	14000
O=C(Nc1ccc(CCN2CCc3ccccc3C2)cc1)Nc1ccccc1[N+](=O)[O-]	770
O=C(Nc1ccc(CCN2CCc3ccccc3C2)cc1)c1ccc([N+](=O)[O-])cc1	5600
COc1cc2c(cc1OC)CN(CCc1ccc(NC(=O)/C=C/c3ccccc3)cc1)CC2	1400
COc1cc2c(cc1OC)CN(CCc1ccc(NC(=O)c3cccnc3)cc1)CC2	4800
Nc1ccccc1NC(=O)Nc1ccc(CCN2CCc3ccccc3C2)cc1	19000
COc1cc2c(cc1OC)CN(CCc1ccc(NC(=O)Nc3ccc(N)cc3)cc1)CC2	31000
COc1cc2c(cc1OC)CN(CCc1ccc(NC(=O)c3ccc4ccccc4c3)cc1)CC2	630
COc1cc2c(cc1OC)CN(CCc1ccc(NC(=O)COc3ccccc3)cc1)CC2	3100
COc1cc2c(cc1OC)CN(CCc1ccc(NC(=O)Nc3ccccc3[N+](=O)[O-])cc1)CC2	330
COc1cc2c(cc1OC)CN(CCc1ccc(NC(=O)c3cnc4ccccc4n3)cc1)CC2	470
COc1cc2c(cc1OC)CN(CCc1ccc(NC(=O)/C=C/c3ccc(Cl)cc3)cc1)CC2	670

Compound	IC50 [nM]
COc1cc2c(cc1OC)CN(CCc1ccc(NC(=O)c3cccc(Br)c3)cc1)CC2	1800
COc1cc2c(cc1OC)CN(CCc1ccc(NC(=O)c3ccc(N)cc3)cc1)CC2	4400
COc1cc2c(cc1OC)CN(CCc1ccc(NC(=O)c3ccccc3)cc1)CC2	4100
COc1cc2c(cc1OC)CN(CCc1ccc(NC(=O)c3ccccc3Br)cc1)CC2	3300
COc1cc2c(cc1OC)CN(CCc1ccc(NC(=O)Nc3ccc([N+](=O)[O-])cc3)cc1)CC2	1500
COc1cc2c(cc1OC)CN(CCc1ccc(NC(=O)c3ccnc4ccccc34)cc1)CC2	4700
COc1cc2c(cc1OC)CN(CCc1ccc(NC(=O)c3cc(OC)c(OC)cc3NC(=O)c3cnc4ccccc4c3)cc1)CC2	78
COc1cc2c(cc1OC)CN(CCc1ccc(NC(=O)Nc3ccccc3N)cc1)CC2	21000
COc1cc2c(cc1OC)CN(CCc1ccc(NC(=O)COc3ccccc3[N+](=O)[O-])cc1)CC2	220
COc1cc2c(cc1OC)CN(CCc1ccc(NC(=O)c3ccc4ccccc4n3)cc1)CC2	850
COc1cc2c(cc1OC)CN(CCc1ccc(NC(=O)c3ccccc3[N+](=O)[O-])cc1)CC2	5400
COc1cc(/C=C/C(=O)Nc2ccc(CCN3CCc4cc(OC)c(OC)cc4C3)cc2)c([N+](=O)[O-])cc1OC	1500
COc1cc2c(cc1OC)CN(CCc1ccc(NC(=O)c3ccc([N+](=O)[O-])cc3)cc1)CC2	1400
COc1cc2c(cc1OC)CN(CCc1ccc(NC(=O)c3cnc4ccccc4c3)cc1)CC2	570
COc1cc2c(cc1OC)CN(CCc1ccc(NC(=O)c3ccc4ncccc4c3)cc1)CC2	650
COc1cc2c(cc1OC)CN(CCc1ccc(NC(=O)c3ccccc3N)cc1)CC2	8500
COc1cc2c(cc1OC)CN(CCc1ccc(NC(=O)/C=C/c3ccccc3[N+](=O)[O-])cc1)CC2	1100

Source: ChEMBL document CHEMBL1152794, “Synthesis and biological evaluation of a small molecule library of 3rd generation multidrug resistance modulators” (Bioorg Med Chem, 2009)
